Source: patent US5973201A, “Phenylacetamide derivatives” (Korea Research Institute of Chemical Technology, priority 1995, dated 1999)

How the values were obtained:
[1] = acetic acid-induced writhing test (analgesic effect); assay type: in vivo, KTC-ICR rats; conditions: Mus musculus
Method: (§1) The physiological activities of the compounds of the present invention prepared according to Example 1 to 6 were measured by employing acetic acid or phenyl-1,4-benzoquinone (PBQ) induced writhing test method.
(§2) In case of the acetic acid-induced writhing test, KTC-ICR […] (available from animal laboratory of Korea Research Institute of Chemical Technology) each having a body weight of 20-25 g were used, while in the PBQ induced writhing test, KTC-ICR […] each having a body weight of 14-18 g were employed. A group consisting of 8 mice which had been adjusted to the testing environment for a week were used in determining the effects of each dosage of a test compound. Water and food were given frelly and illumination was maintained on a 12-hour cycle.
(§3) Test solutions were prepared by dissolving one of the final products obtained in Examples 1 to 6 in distilled water containing 1% of Tween and 5% ethanol in a pre-determined concentration. The test solutions were used after serial dilution depending on each dosage.
(§4) The test solutions were […] administered in a dose of 0.1 ml per 10 g of a body weight. 0.1 ml of 1% acetic acid solution or 0.1 ml of 0.02% PBQ solution was administered […] or after 30 minutes in case of subcutaneous injection.
(§5) Then, the number of writhings generated during a period of 10 minutes after 3 minutes from the administration of acetic acid was measured. in case of the administration of PBQ, the number of writhings generated during a period of 5 minutes after 5 minutes from the administration was measured.
(§6) For a comparison purpose, initially, distilled water containing 1% of Tween and 5% ethanol alone was administered to the control group. Then, the control groups were subjeted the same procedure as the test groups.
(§7) The number of writhings suffered by the test group was compared with that of the control group; and the analgesic effect was measured in terms of the percentage of inhibition of writhing (I.W.). [formula] wherein: A is the number of writhings suffered by the control group; and
(§8) B is the number of writhings suffered by the test group.
(§9) I.W. values for each dosage were calculated by employing regression analysis. The amount of a test compound which is required in reducing the frequency of writhings to the 50% level of that generated by the control group, i.e., B=0.5A or I.W.=50%, is designated as ED50 (mg/kg of a body weight). Therefore, a lower value of ED50 represents a higher analgesic effect of the tested compound.

[2] = phenyl-1,4-benzoquinone (PBQ) induced writhing test (analgesic effect); assay type: in vivo, KTC-ICR rats; conditions: Mus musculus
Method: as §1, §2, §3, §4, §5, §6, §7, §8, §9

[3] = Toxicity test: behavioral changes in the test animals; assay type: in vivo; conditions: score; for Convulsion / Salivation / Urination: normal value 0; for Dyspnoea / Ptosis / Sedation / Vasodilation: normal value 4
[4] = PBQ, dose reducing writhing to 50% of control, read-out: ED50
[5] = acetic acid, dose reducing writhing to 50% of control, read-out: ED50

## CCCCCCCC/C=C\CCCCCCCC(=O)NCc1ccc(O)c(OC)c1 [NE-19550, Nvanillyloleamide, reference compound]
[1]
  ED50: 15.7 mg/kg

## COc1cc(CC(=O)NCCOCc2ccc(C)c(C)c2)ccc1OCCN [Example 3, N-{2-(3,4-dimethylbenzyloxy)ethyl}-4-(2-aminoethoxy)-3-methoxyphenylacetamide]
[2]; [4]
  ED50: 10.9 mg/kg
[3]; 5 mg/kg
  Convulsion: 0
  Salivation: 0
  Urination: 0
  Dyspnoea: 4
  Ptosis: 4
  Sedation: 4
  Vasodilation: 4
[3]; 10 mg/kg
  Convulsion: 0
  Salivation: 0
  Urination: 0
  Dyspnoea: 4
  Ptosis: 4
  Sedation: 4
  Vasodilation: 4
[3]; 20 mg/kg
  Convulsion: 0
  Salivation: 0
  Urination: 0
  Dyspnoea: 4
  Ptosis: 5
  Sedation: 5
  Vasodilation: 4

## CC(=O)Oc1ccccc1C(=O)O [Aspirin, acetylsalicylic acid]
[2]
  ED50: 71.4 mg/kg

## COc1cc(CC(=O)NCCOc2ccc(C)c(C)c2)ccc1OCCN [Example 1, N-{2-(3,4-dimethylphenoxy)ethyl}-4-(2-aminoethoxy)-3-methoxyphenylacetamide]
[2]; [4]
  ED50: 9.53 mg/kg

## COc1ccc2cc([C@H](C)C(=O)O)ccc2c1 [Naproxen]
[2]; [4]
  ED50: 17.1 mg/kg

## COc1cc(CC(=O)NCCSc2ccc(C)cc2)ccc1OCCN [Example 5, N-{2-(4-methylthiophenoxy)ethyl}-4-(2-aminoethoxy)-3-methoxyphenylacetamide]
[1]; [5]
  ED50: 0.84 mg/kg
[3]; 0.63 mg/kg
  Convulsion: 0
  Salivation: 0
  Urination: 0
  Dyspnoea: 4
  Ptosis: 4
  Sedation: 4
  Vasodilation: 4
[3]; 1.25 mg/kg
  Convulsion: 0
  Salivation: 0
  Urination: 0
  Dyspnoea: 6
  Ptosis: 6
  Sedation: 6
  Vasodilation: 4
[3]; 2.5 mg/kg
  Convulsion: 0
  Salivation: 0
  Urination: 0
  Dyspnoea: 6
  Ptosis: 6
  Sedation: 7
  Vasodilation: 5

## COc1cc(CC(=O)NCCOCc2ccc(C)c(C)c2)ccc1O [Example 4, N-{2-(3,4-dimethylbenzyloxy)ethyl}-4-hydroxy-3-methoxyphenylacetamide]
[1]; [5]
  ED50: 2.08 mg/kg
[3]; 1.25 mg/kg
  Convulsion: 0
  Salivation: 0
  Urination: 0
  Dyspnoea: 4
  Ptosis: 4
  Sedation: 4
  Vasodilation: 4
[3]; 2.5 mg/kg
  Convulsion: 0
  Salivation: 0
  Urination: 0
  Dyspnoea: 5
  Ptosis: 6
  Sedation: 6
  Vasodilation: 4
[3]; 5 mg/kg
  Convulsion: 0
  Salivation: 0
  Urination: 0
  Dyspnoea: 6
  Ptosis: 7
  Sedation: 7
  Vasodilation: 5

## CCCCCCCC/C=C\CCCCCCCC(=O)NCc1ccc(OCCN)c(OC)c1 [NE-21610, reference compound]
[1]; [5]
  ED50: > 300 mg/kg
[2]; [4]
  ED50: 38.3 mg/kg

## COc1cc(CC(=O)NCCCOc2ccc(C)c(C)c2)ccc1OCCN [Example 2, N-{3-(3,4-dimethylphenoxy)propyl}-4-(2-aminoethoxy)-3-methoxyphenylacetamide]
[2]; [4]
  ED50: 7.02 mg/kg
[3]; 2.5 mg/kg
  Convulsion: 0
  Salivation: 0
  Urination: 0
  Dyspnoea: 4
  Ptosis: 4
  Sedation: 4
  Vasodilation: 4
[3]; 5 mg/kg
  Convulsion: 0
  Salivation: 0
  Urination: 0
  Dyspnoea: 5
  Ptosis: 6
  Sedation: 6
  Vasodilation: 5
[3]; 10 mg/kg
  Convulsion: 0
  Salivation: 0
  Urination: 0
  Dyspnoea: 7
  Ptosis: 6
  Sedation: 7
  Vasodilation: 6

## COc1cc(CC(=O)NCCSc2ccc(C)c(C)c2)ccc1OCCN [Example 6, N-{2-(3,4-dimethylthiophenoxy)ethyl}-4-(2-aminoethoxy)-3-methoxyphenylacetarnide]
[1]; [5]
  ED50: 0.48 mg/kg
[3]; 0.31 mg/kg
  Convulsion: 0
  Salivation: 0
  Urination: 0
  Dyspnoea: 4
  Ptosis: 4
  Sedation: 4
  Vasodilation: 4
[3]; 0.63 mg/kg
  Convulsion: 0
  Salivation: 0
  Urination: 0
  Dyspnoea: 4
  Ptosis: 5
  Sedation: 6
  Vasodilation: 4
[3]; 1.25 mg/kg
  Convulsion: 0
  Salivation: 0
  Urination: 0
  Dyspnoea: 6
  Ptosis: 6
  Sedation: 6
  Vasodilation: 5

## CCCCC1C(=O)N(c2ccccc2)N(c2ccccc2)C1=O [Phenylbutazone]
[2]; [4]
  ED50: 79.8 mg/kg

## COc1cc(CNC(=O)CCCC/C=C/C(C)C)ccc1O [Capsaicin, N-vanillyl-trans-8-methyl-6-nonenamide, reference compound]
[1]
  ED50: 1.34 mg/kg

## CC(C)Cc1ccc(C(C)C(=O)O)cc1 (centres unmarked) [Ibuprofen]
[2]; [4]
  ED50: 11 mg/kg

## COc1cc(CC(=O)NCCCc2ccc(C)c(C)c2)ccc1OCCN [Control, reference compound]
[3]; 0.25 mg/kg
  Convulsion: 1
  Salivation: 0
  Urination: 0
  Dyspnoea: 5
  Ptosis: 6
  Sedation: 6
  Vasodilation: 5
[3]; 0.5 mg/kg
  Convulsion: 1
  Salivation: 0
  Urination: 0
  Dyspnoea: 6
  Ptosis: 7
  Sedation: 7
  Vasodilation: 5
[3]; 1 mg/kg
  Convulsion: 1
  Salivation: 0
  Urination: 0
  Dyspnoea: 6
  Ptosis: 7
  Sedation: 7
  Vasodilation: 6
